Data as given in PubChem BioAssay AID248 (DTP/NCI, 2004).
“And” between values parts separate entries of the source, which are not always exact repeats. Equal values may be shown once. Toxic doses and inconclusive results are not listed. Cut-off read from the data, not from the text of the source: active = T/C of 150% or more; inactive = T/C below 125%.

Tested on: L1210 leukemia ip in BDF1 mice, survival T/C
Experiment: NCI In Vivo Anticancer Drug Screen. Data for tumor model L1210 Leukemia (intraperitoneal) in B6D2F1 (BDF1) mice
Conditions: endpoint: mean survival time, higher = longer survival
Procedure, shortened: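 Survival endpoint. Drug-treated group vs vehicle group, expressed as T divided by C. Tumor passaged by transplantation.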

[1] = dose: 100.0 mg/kg/injection, schedule: Q04DX002 (ip), vehicle: Klucel (hydroxypropylcellulose) (HPC)
[2] = dose: 200.0 mg/kg/injection, schedule: Q04DX002 (ip), vehicle: Klucel (hydroxypropylcellulose) (HPC)
[3] = dose: 100.0 mg/kg/injection, schedule: Q04DX003 (ip), vehicle: saline with Tween-80
[4] = dose: 200.0 mg/kg/injection, schedule: Q04DX003 (ip), vehicle: saline with Tween-80
[5] = dose: 400.0 mg/kg/injection, schedule: Q04DX003 (ip), vehicle: saline with Tween-80
[6] = dose: 400.0 mg/kg/injection, schedule: Q04DX002 (ip), vehicle: Klucel (hydroxypropylcellulose) (HPC)
[7] = dose: 100.0 mg/kg/injection, schedule: Q04DX003 (ip), vehicle: Klucel (hydroxypropylcellulose) (HPC)
[8] = dose: 200.0 mg/kg/injection, schedule: Q04DX003 (ip), vehicle: Klucel (hydroxypropylcellulose) (HPC)
[9] = dose: 400.0 mg/kg/injection, schedule: Q04DX003 (ip), vehicle: Klucel (hydroxypropylcellulose) (HPC)
[10] = dose: 100.0 mg/kg/injection, schedule: Q01DX001 (ip), vehicle: saline
[11] = dose: 200.0 mg/kg/injection, schedule: Q01DX001 (ip), vehicle: saline
[12] = dose: 400.0 mg/kg/injection, schedule: Q01DX001 (ip), vehicle: saline
[13] = dose: 100.0 mg/kg/injection, schedule: Q01DX009 (ip), vehicle: Klucel (hydroxypropylcellulose) (HPC)
[14] = dose: 200.0 mg/kg/injection, schedule: Q01DX009 (ip), vehicle: Klucel (hydroxypropylcellulose) (HPC)
[15] = dose: 400.0 mg/kg/injection, schedule: Q01DX009 (ip), vehicle: Klucel (hydroxypropylcellulose) (HPC)
[16] = dose: 12.5 mg/kg/injection, schedule: Q01DX009 (ip), vehicle: Klucel (hydroxypropylcellulose) (HPC)
[17] = dose: 25.0 mg/kg/injection, schedule: Q01DX009 (ip), vehicle: Klucel (hydroxypropylcellulose) (HPC)
[18] = dose: 100.0 mg/kg/injection, schedule: Q01DX009 (ip), vehicle: saline with Tween-80
[19] = dose: 200.0 mg/kg/injection, schedule: Q01DX009 (ip), vehicle: saline with Tween-80
[20] = dose: 400.0 mg/kg/injection, schedule: Q01DX009 (ip), vehicle: saline with Tween-80

Measured: T/C

N#[N+]c1nc[nH]c1C(N)=O
inactive: dose: 0.4 mg/kg/injection, schedule: Q03HX008 (ip), vehicle: steriod suspending solution 92 % of control | dose: 0.6 mg/kg/injection, schedule: Q03HX008 (ip), vehicle: steriod suspending solution 96 % of control | dose: 0.9 mg/kg/injection, schedule: Q03HX008 (ip), vehicle: steriod suspending solution 97 % of control | dose: 1.3 mg/kg/injection, schedule: Q03HX008 (ip), vehicle: steriod suspending solution 89 % of control | dose: 1.8 mg/kg/injection, schedule: Q03HX008 (ip), vehicle: steriod suspending solution 92 % of control | dose: 2.6 mg/kg/injection, schedule: Q03HX008 (ip), vehicle: steriod suspending solution 97 % of control | dose: 3.75 mg/kg/injection, schedule: Q01DX001 (ip), vehicle: steriod suspending solution 93 % of control | dose: 3.8 mg/kg/injection, schedule: Q03HX008 (ip), vehicle: steriod suspending solution 95 % of control | dose: 6.25 mg/kg/injection, schedule: Q01DX001 (ip), vehicle: steriod suspending solution 96 % of control | dose: 12.5 mg/kg/injection, schedule: Q01DX001 (ip), vehicle: steriod suspending solution 99 % of control

O=C(O)c1cccc(N2C(=O)CSC2=S)c1
inactive: dose: 25.0 mg/kg/injection, schedule: Q04DX002 (ip), vehicle: Klucel (hydroxypropylcellulose) (HPC) 94 % of control | dose: 50.0 mg/kg/injection, schedule: Q04DX002 (ip), vehicle: Klucel (hydroxypropylcellulose) (HPC) 93 % of control and 91 % of control | [1] 93 % of control and 102 % of control | [2] 88 % of control

Cc1ccc2c(c1)NP(=S)(c1ccccc1)N2 (centres undefined)
inactive: [3] 103 % of control | [4] 103 % of control | [5] 100 % of control

COc1ccc(Nc2cc(N)nc(N)n2)cc1
inactive: dose: 25.0 mg/kg/injection, schedule: Q01DX Z (ip), vehicle: methylcellulose (MC) 93 % of control | dose: 50.0 mg/kg/injection, schedule: Q01DX Z (ip), vehicle: methylcellulose (MC) 87 % of control

COC1OC(COC(=S)SCC2OC(OC)C(OC)C(OC)C2OC)C(OC)C(OC)C1OC (centres undefined)
inactive: [1] 100 % of control | [2] 93 % of control and 92 % of control | [6] 96 % of control and 89 % of control

O=C(O)C(SSC(C(=O)O)(c1ccccc1)c1ccccc1)(c1ccccc1)c1ccccc1
inactive: [7] 106 % of control | [8] 102 % of control | [9] 88 % of control

Nc1ccc(N=Nc2ccccc2)cc1[N+](=O)[O-]
inactive: [3] 98 % of control | [4] 96 % of control | [5] 94 % of control

COc1ccc(OC)c2c(C)cc(Cl)nc12
inactive: [10] 104 % of control | [11] 98 % of control | [12] 110 % of control

COc1ccc([N+](=O)[O-])cc1NC(=O)Nc1ccc(S(N)(=O)=O)cc1
inactive: [13] 101 % of control | [14] 92 % of control | [15] 94 % of control

O=C(/C=C\c1ccc([N+](=O)[O-])cc1)NCCCCNC(=O)/C=C/c1ccc([N+](=O)[O-])cc1
inactive: [10] 96 % of control

BrCc1cc2ccccc2cc1CBr
inactive: [16] 98 % of control | [17] 96 % of control | dose: 25.0 mg/kg/injection, schedule: Q04DX003 (ip), vehicle: saline with Tween-80 100 % of control | dose: 50.0 mg/kg/injection, schedule: Q01DX009 (ip), vehicle: Klucel (hydroxypropylcellulose) (HPC) 93 % of control and 107 % of control | dose: 50.0 mg/kg/injection, schedule: Q04DX003 (ip), vehicle: saline with Tween-80 104 % of control | [3] 96 % of control

NNc1c(F)c(F)c(NN)c(F)c1F
inactive: dose: 6.25 mg/kg/injection, schedule: Q04DX003 (ip), vehicle: Klucel (hydroxypropylcellulose) (HPC) 96 % of control | dose: 12.5 mg/kg/injection, schedule: Q04DX003 (ip), vehicle: Klucel (hydroxypropylcellulose) (HPC) 93 % of control | dose: 25.0 mg/kg/injection, schedule: Q04DX003 (ip), vehicle: Klucel (hydroxypropylcellulose) (HPC) 95 % of control

CC(C)N1CCOCC1
inactive: dose: 25.0 mg/kg/injection, schedule: Q01DX009 (ip), vehicle: acetone 94 % of control | dose: 50.0 mg/kg/injection, schedule: Q01DX009 (ip), vehicle: acetone 105 % of control | dose: 100.0 mg/kg/injection, schedule: Q01DX009 (ip), vehicle: acetone 102 % of control

CC[n+]1ccc(/C=C\c2c(Cl)cccc2Cl)cc1
inactive: [16] 100 % of control | [17] 100 % of control | [7] 100 % of control | [8] 100 % of control | [9] 112 % of control

O=C(/C=C\c1ccc(Cl)cc1)c1ccccc1
inactive: [18] 91 % of control | [1] 89 % of control | dose: 100.0 mg/kg/injection, schedule: Q04DX002 (ip), vehicle: gum acacia 98 % of control | [19] 91 % of control | [2] 96 % of control | dose: 200.0 mg/kg/injection, schedule: Q04DX002 (ip), vehicle: gum acacia 95 % of control | [20] 86 % of control | [6] 96 % of control | dose: 400.0 mg/kg/injection, schedule: Q04DX002 (ip), vehicle: gum acacia 91 % of control

O=[N+]([O-])c1ccc(O)c(N=Cc2ccccc2)c1
inactive: [10] 97 % of control | [11] 96 % of control | [12] 100 % of control

Oc1ccccc1C=NCc1ccccc1
inactive: [7] 100 % of control | [8] 92 % of control | [9] 96 % of control

CC(C)(C)OC1C=CCCC1 (centres undefined)
inactive: [3] 96 % of control | [4] 96 % of control | [5] 96 % of control

C[Si](C)(C)C1C=Cc2ccccc2C1[Si](C)(C)C (centres undefined)
inactive: [18] 94 % of control | [19] 91 % of control | [20] 94 % of control

CC(NC(=O)OCc1ccccc1)C(=O)NC(CSCc1ccccc1)C(=O)O (centres undefined)
inactive: [3] 97 % of control | [4] 97 % of control | [5] 97 % of control

Cc1ccccc1NC(=O)Nc1ccccc1C
inactive: [13] 97 % of control | [14] 106 % of control | [15] 93 % of control

ClCCC1CNCCN1 (centres undefined)
inactive: dose: 100.0 mg/kg/injection, schedule: Q01DX009 (ip), vehicle: saline 87 % of control | dose: 100.0 mg/kg/injection, schedule: Q04DX003 (ip), vehicle: saline 96 % of control | dose: 200.0 mg/kg/injection, schedule: Q01DX009 (ip), vehicle: saline 89 % of control | dose: 200.0 mg/kg/injection, schedule: Q04DX003 (ip), vehicle: saline 96 % of control | dose: 400.0 mg/kg/injection, schedule: Q01DX009 (ip), vehicle: saline 89 % of control | dose: 400.0 mg/kg/injection, schedule: Q04DX003 (ip), vehicle: saline 103 % of control

CSc1ncc(CO)c(N)n1
inactive: dose: 50.0 mg/kg/injection, schedule: Q01DX001 (ip), vehicle: carboxymethylcellulose (CMC) 111 % of control | dose: 100.0 mg/kg/injection, schedule: Q01DX001 (ip), vehicle: carboxymethylcellulose (CMC) 98 % of control | dose: 200.0 mg/kg/injection, schedule: Q01DX001 (ip), vehicle: carboxymethylcellulose (CMC) 102 % of control | dose: 400.0 mg/kg/injection, schedule: Q01DX001 (ip), vehicle: carboxymethylcellulose (CMC) 111 % of control
